Patent publication US20240287102A1, “NOVEL CRYSTALLINE FORMS OF [(1R)-2-(1-BENZOFURAN-3-YL)-1-{[(1S,2R,4R)-7-OXABICYCLO[2.2.1]HEPTAN-2-YL]FORMAMIDO}ETHYL]BORONIC ACID, ADDUCTS THEREOF, AND PROCESSES TO OBTAIN” (Merck Patent GmbH, priority 2021, published 2024)
In brackets after ≈: the same amount, converted by molar mass. Where two headings read alike, the source gives them in different places.

How the values were obtained:
[1] = Thermodynamic solubility (24 h) at 37° C.; type: physicochemical; details: for solubility thermodynamic at 24 h: 37 °C, thermodynamic from solid
Description: Approximately 10-20 mg of 1-(4-{[6-Amino-5-(4-phenoxy-phenyl)-pyrimidin-4-ylamino]-methyl}-4-fluoro-piperidin-1-yl)-propenone was weighed into a 4 mL glass vial. 1 mL of SGF medium (simulated gastric fluid, pH 1.2), FaSSIF medium (fasted state intestinal medium, pH 6.5), or USP Phosphate buffer pH 7.4 was added and the suspension was shaken for 24 h at 450 rpm at 37° C. After 1 hour, 6 hours and after 24 hours, the vials were checked for the presence of undissolved compound and the pH was measured. If necessary, the pH was adjusted after 1 hour and 6 hours. The solid liquid separation was carried out using 1 mL syringe and 0.2 μm syringe filter. Clear filtrate was analyzed by HPlC after suitable dilution to measure the amount of API dissolved.

[2] = Water Vapour Sorption isotherm (25° C., DVS-Intrinsic); type: physicochemical; details: for water uptake levels: 25° C.
Description: DSC scan of trimeric form A1 was acquired on a Mettler-Toledo DSC 1 with a heating rate of 5 K/min, using nitrogen purge gas at 50 mL/min. TGA scan of trimeric form A1 was acquired on a Mettler-Toledo TGA 851 with a heating rate of 5 K/min, using nitrogen purge gas at 50 mL/min. […] Eur. Criteria (section 5.11.). Water Vapour Sorption isotherm was acquired on a DVS-Intrinsic system from SMS. […] Dissolution level of trimeric form A1 in Simulated Gastric Fluid [SGF, pH 1.2] at 37° C. was determined to be approximately 2.4 mg/mL after 2 h (see example 12).
DSC scan of hydrate form NF2 was acquired on a Mettler-Toledo DSC 1 with a heating rate of 5 K/min, using nitrogen purge gas at 50 mL/min. TGA scan of hydrate form NF2 was acquired on a Mettler-Toledo TGA 851 with a heating rate of 5 K/min, using nitrogen purge gas at 50 mL/min. […] Eur. Criteria (section 5.11.). Water Vapour Sorption isotherm was acquired on a DVS-Intrinsic system from SMS.
In the DSC, a phase transition to trimeric form A1 occurred above 150° C., and the trimeric A1 form has a melting peak onset greater than 220° C. […] DSC scan of the anhydrous form NF9 was acquired on a Mettler-Toledo DSC 1 with a heating rate of 5 K/min, using nitrogen purge gas at 50 mL/min. TGA scan of anhydrous form NF9 was acquired on a Mettler-Toledo TGA 851 with a heating rate of 5 K/min, using nitrogen purge gas at 50 mL/min. […] Eur. Criteria (section 5.11.). […] Water Vapour Sorption isotherm was acquired on a DVS-Intrinsic system from SMS.
This is followed by an exothermic event in the DSC, assigned to a phase transition to trimeric form A1. Finally, the melting of trimeric form A1 with melting peak onset at temperatures greater than 220° C. […] DSC scan of the hydrate of trimeric boronic acid adduct form NF7 was acquired on a Mettler-Toledo DSC 1 with a heating rate of 5 K/min, using nitrogen purge gas at 50 mL/min. TGA scan of the hydrate of trimeric boronic acid adduct form NF7 was acquired on a Mettler-Toledo TGA 851 with a heating rate of 5 K/min, using nitrogen purge gas at 50 mL/min. […] Eur. Criteria (section 5.11.). […]

[3] = biological target: LMP7 subunit of the immunoproteasome (Homo sapiens, UniProt P20618+P28062); details: Singh et al, Br. J. Hematology 152(2): 155-163; cited from earlier work

Structure (SMILES)	Thermodynamic solubility FaSSIF pH 6.5 ([1]; Fasted-State Simulated Intestinal Fluid pH 6.5, 37° C., 24 h)	Thermodynamic solubility SGF pH 1.2 ([1]; Simulated Gastric Fluid pH 1.2, 37° C., 24 h)	solubility thermodynamic at 24 h ([1]; fasted-state simulated intestinal fluid (FaSSIF), pH 6.5, fassif, Fasted-State Simulated Intestinal Fluid pH 6.5, 37° C., 24 h, read-out: Thermodynamic solubility FaSSIF pH 6.5)	solubility in biorelevant media (in words) ([1]; listed as Hydrate form NF2)	solubility in biorelevant media (in words) ([1]; listed as hydrate form NF2)	solubility thermodynamic at 24 h ([1]; simulated gastric fluid (SGF), pH 1.2, simulated gastric fluid, Simulated Gastric Fluid pH 1.2, 37° C., 24 h, read-out: Thermodynamic solubility SGF pH 1.2)	hygroscopicity classification according to Ph. Eur. Criteria (section 5.11.) [2]	water uptake levels ([2]; relative humidity range 0-80% rh)	water uptake levels ([2]; relative humidity range 90-98% rh)	selectivity as inhibitor of the LMP7 subunit [3]
O=C(N[C@@H](Cc1coc2ccccc12)B(O)O)[C@@H]1C[C@H]2CC[C@@H]1O2 [Form NF2]	0.7 mg/mL	0.7 mg/mL	~700 µg/mL (≈ 2130 µM)	highly soluble in biorelevant media	good solubility in biorelevant media	~700 µg/mL (≈ 2130 µM)	slightly hygroscopic	≤ 1 % m/m	≤ 5 % m/m	–
CC1=C(C(=O)N[C@H](C)C(=O)N[C@@H](Cc2c[nH]c3ccccc23)C(=O)N[C@@H](Cc2ccccc2)C(=O)[C@@]2(C)CO2)Cc2ccccc21 [PR-924]	–	–	–	–	–	–	–	–	–	100 fold
